Results taken from patent US20160000938A1, “REAGENT FOR DIAGNOSIS OF OSTEOARTHRITIS COMPRISING PEPTIDE PROBE OF APOPEP-1” (priority 2013, published 2016).
Entries after “also recorded” stand apart in the source; their conditions may differ.

Experiments:
[1] = tested on: arthritic joints of DMM mice; experiment: In vivo optical imaging of fluorescence-labeled ApoPep-1 probe in DMM OA mice; design: species or system C57BL/6N mice; conditions: for OARSI grade of OA at which the probe detects OA / apoptotic chondrocytes: DMM model
Protocol: (§1) Male mice at 12 weeks of age were divided into three groups: Sham-ApoPep-1, OA-Control Peptide and OA-ApoPep-1 group (n=4-8/group). For OA model, we performed DMM surgery as described in previous studies (8, 23).
(§2) FlammaTM675-ApoPep-1 was intravenously (i.v.) injected from the tail vain (1 mM 100 μl/20 g) and allowed to circulate for the indicated time periods. In vivo optical imaging was conducted by scanning the mice under anesthesia by inhalation of isofluran (jw pharmaceutical, South Korea) in 80% N2O/20% O2 using Optix Explore (ART, Montreal, Canada). The excitation/emission wavelengths for FlammaTM675 were 676 nm/704 nm. Ex vivo optical imaging was performed with extracted hind limbs by the same method. FlammaTM675-NSSSVDK was used as the control peptide (18).

[2] = tested on: ATDC5 chondrocyte cell treated with staurosporine; experiment: In vitro binding to apoptotic chondrocytes (immunocytochemistry); type: cell-based; conditions: fluorescence staining; for binding to apoptotic cells: chondrocytes treated with staurosporine; for binding to live cells: live chondrocytes
Protocol: ATDC5 chondrocyte cell was maintained in a mixture of DMEM and Ham's F-12 (DMEM/F12) medium (Lonza, USA) containing 5% fetal bovine serum (FBS) (Gibco-BRL, USA), 10 ug/ml of human transferrin (Sigma) and 3×10^-8 M of sodium selenite (Sigma) and penicillin/streptomycin. Apoptosis was induced by incubating cells with 0.5 uM Staurosporine (cell signaling, USA) for the indicated time periods. Apoptotic stages were determined by staining the cells with annexin V and ApoPep-1 conjugated with flamma 675. For immunocytochemistry staining, cells were incubated with 1% bovine serum albumin at 37° C. for 30 min for blocking and then binding with 10 μM flamma 675-conjugated peptide at 4° C. for 1 h. Cells were then costained with Alexa-594-annexin V (Invitrogen, Carlsbad, Calif., USA) for 15 min at room temperature in binding buffer (10 mM HEPES, pH 7.4, 140 mM NaCl, and 2.5 mM CaCl2). After fixation, cells were incubated with DAPI for nuclear staining and mounted with a ProLong® Antifade Kit.

[3] = tested on: apoptotic chondrocytes of DMM-operated articular cartilage; experiment: In situ immunofluorescence staining and TUNEL assay of OA cartilage cryo-sections; design: species or system mice
Protocol: Hind limbs of mice were fixed with 4% paraformaldehyde in 0.1 M phosphate-buffered saline (PBS, pH 7.4) for 12 hours, and decalcified with 10% ethylene-diamine tetraacetic acid (EDTA, pH 7.4) for 3 weeks. Decalcified tissues were dipped in 20% sucrose/PBS solution overnight and embedded in OCT compound (Tissue-Tek) for making the frozen samples. Frozen samples were cut at 10 μm thickness from femur to tibia range for joint visible. Cut slices from each animal were selected for the staining with same primary antibodies to comparison at the same area of joint articular cartilage. The section was treated with a blocking solution (0.1% tween-20, 1% bovine serum albumin (BSA), 5% normal donkey serum in PBS) after washing with PBS, and then incubated at 4° C. 1 h with the primary antibodies such as rabbit polyclonal collagen 2 antibody (1:200; abcam, MA, USA), mouse monoclonal MMP-13 antibody (1:200; abcam, MA, USA). After PBS rinses, the sections were incubated with Alexa-594 or Alexa-488-conjugated secondary antibody for 30 min. Thereafter, the sections were incubated with 4′,6′-diamidino-2-phenylindole (DAPI, Sigma-Aldrich, St Louis, Mo., USA) for nuclear staining then mounted with a ProLong® Antifade Kit (Invitrogen, USA). […]

[4] = tested on: arthritic joints of DMM mice; experiment: Ex vivo optical imaging of extracted hind limbs of DMM mice; type: in vivo, C57BL/6N mice
Protocol: as §1, §2

Substance | time after DMM operation at which the probe can detect apoptotic change ([1]; DMM OA model) [weeks] | OARSI grade of OA at which the probe detects OA / apoptotic chondrocytes [1] | OARSI grade of OA at which the probe detects OA / apoptotic chondrocytes ([1]; listed as ApoPep1) | ApoPep-1 fluorescent signal from arthritic joints compared with 4 weeks ([1]; i.v. injection, 8 weeks after DMM operation) | optimal time point for diagnosis after injection ([1]; i.v. injection, DMM mice) [min] | time after injection after which ApoPep-1 binding is undetectable ([1]; i.v. injection, DMM mice) [h] | time after injection of maximal ApoPep-1 binding ([1]; i.v. injection, DMM mice) [min] | fluorescent signal time course after probe injection ([1]; images from 30 minutes to 24 hours after i.v. administration, DMM mice) | ApoPep-1 fluorescent signal from arthritic joints ([1]; in vivo, i.v. injection, 4 weeks after DMM operation) | ApoPep-1 fluorescent signal from arthritic joints compared with sham-ApoPep-1 and OA-control-Peptide groups ([1]; in vivo, i.v. injection, one week after DMM operation) | ApoPep-1 fluorescent signal from arthritic joints compared with sham-ApoPep-1 and OA-control-Peptide groups ([1]; in vivo, i.v. injection, two weeks after DMM operation) | binding to apoptotic cells [2] | binding to live cells [2] | correlation of TUNEL staining with ApoPep-1 signals ([3]; DMM models 2 weeks after surgery) | localisation of ApoPep-1 relative to type II collagen and MMP13 ([3]; DMM-operated articular cartilage, 2 weeks after surgery) | ApoPep-1 fluorescent signal from arthritic joints ([4]; 4 weeks after DMM operation) | ApoPep-1 fluorescent signal from arthritic joints compared with sham-ApoPep-1 and OA-control-Peptide groups ([4]; two weeks after DMM operation)
CQRPPR [ApoPep-1] | 2 | grade I OA; also recorded: Grades I | Grade II | reduced | 30 | 8 | 30 | clearly detectable from arthritic joint sat 30 minutes after the probe injection and decreased according to time course | maximal | no significant difference | detected strongly; also recorded: significant increase | bind to apoptotic cells | not to live cells | strongly correlated | detected where type II collagen decreased and MMP13 increased | maximal | significant increase
annexin V: a 36 kDa protein that binds to phosphatidylserine, early marker of apoptotic cell death [reference compound] | – | – | – | – | – | – | – | – | – | – | – | bind to apoptotic cells | not to live cells | – | – | – | –
